Our source for the IC50 values is patent US12139499B2, “Heteroaryl compounds for treating Huntington's disease” (PTC THERAPEUTICS, INC., priority 2018, dated 2024).

Bounds are passed on as bounds.

The assay concerns Endogenous Huntingtin Protein. The experiment in a line: Endogenous Huntingtin Protein Assay (ELISA-based MSD electrochemiluminescence). The format is cell-based. The following applies: Table 1. The method, boiled down:
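Sandwich MSD electrochemiluminescence immunoassay. Capture used MW1 (expanded polyglutamine) or MAB2166 antibody coated at 1 μg/mL overnight at 4 °C. Samples were bound overnight at 4 °C, then a rabbit monoclonal detection antibody and SULFO-TAG anti-rabbit, each at 0.25 μg/mL, were applied for 1 h at room temperature.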
`Cc1cn2nc(-c3cc(F)c4nc(N(C)C5CCNCC5)sc4c3)ccc2n1` [Compound 185, 4-fluoro-N-methyl-6-(2-methylimidazo[1,2-b]pyridazin-6-yl)-N-(piperidin-4-yl)-1,3-benzothiazol-2-amine] had a concentration for half-maximal inhibition (IC50) of at most 0.1 µM.

In turn, `CN(c1ccc2nc(-c3ccc4nn(C)cc4c3)sc2c1)C1CCNCC1` [Compound 11, N-methyl-2-(2-methyl-2H-indazol-5-yl)-N-(piperidin-4-yl)-1,3-benzothiazol-6-amine] had a 50% inhibitory concentration (IC50) of 1 to 3 µM.

As to `Cc1cn2cc(-c3cc(F)c4nc(OC5CCNCC5)sc4c3)cc(C)c2n1` [Compound 319, 6-(2,8-dimethylimidazo[1,2-a]pyridin-6-yl)-4-fluoro-2-[(piperidin-4-yl)oxy]-1,3-benzothiazole], the IC50 is at most 0.1 µM.

`CN1CCC(N(C)c2nc3nnc(-c4ccc(-c5cn[nH]c5)cc4O)cc3s2)CC1` [Compound 283, 2-{6-[methyl(1-methylpiperidin-4-yl)amino][1,3]thiazolo[4,5-c]pyridazin-3-yl}-5-(1H-pyrazol-4-yl)phenol]: the IC50 was 0.5 to 1 µM.

`Cc1cn2cc(-c3cc4sc(OC5CC6CCC(C5)N6)nc4cn3)cc(C#N)c2n1` (stereo not drawn) [Compound 223, 6-{2-[(3-exo)-8-azabicyclo[3.2.1]oct-3-yloxy][1,3]thiazolo[4,5-c]pyridin-6-yl}-2-methylimidazo[1,2-a]pyridine-8-carbonitrile] had an IC50 of 0.1 to 0.5 µM.

For the compound `Cc1cn2nc(-c3cnc4nc(N(C)C5CC(C)(C)NC(C)(C)C5)sc4n3)cc(C)c2n1` [Compound 162, 6-(2,8-dimethylimidazo[1,2-b]pyridazin-6-yl)-N-methyl-N-(2,2,6,6-tetramethylpiperidin-4-yl)[1,3]thiazolo[4,5-b]pyrazin-2-amine], the 50% inhibitory concentration (IC50) is at most 0.1 µM.

With `Cn1cc2cc(-c3cnc4nc(NC5CCNCC5)sc4c3)ccc2n1` [Compound 15, 6-(2-methyl-2H-indazol-5-yl)-N-(piperidin-4-yl)[1,3]thiazolo[4,5-b]pyridin-2-amine], the concentration for half-maximal inhibition (IC50) lay in the range of 1 to 3 µM.

Compound `Oc1cc(-c2cn[nH]c2)ccc1-c1cc2sc(N3CCNCC3)nc2nn1` [Compound 334, 2-[6-(piperazin-1-yl)[1,3]thiazolo[4,5-c]pyridazin-3-yl]-5-(1H-pyrazol-4-yl)phenol] returned an IC50 of 0.1 to 0.5 µM.

As for `Cc1cn2cc(-c3ccc4nc(N(C)C5CC(C)(C)NC(C)(C)C5)sc4n3)ccc2n1` [Compound 129, N-methyl-5-(2-methylimidazo[1,2-a]pyridin-6-yl)-N-(2,2,6,6-tetramethylpiperidin-4-yl)[1,3]thiazolo[5,4-b]pyridin-2-amine], the IC50 lay within 0.5 to 1 µM.

Consider `Cc1cn2nc(-c3cc(F)c4nc(C5CCN6CCCC6C5)sc4c3)ccc2n1` (stereo not shown) [Compound 166, 6-[4-fluoro-2-(octahydroindolizin-7-yl)-1,3-benzothiazol-6-yl]-2-methylimidazo[1,2-b]pyridazine], for which the 50% inhibitory concentration (IC50) was at most 0.1 µM.

Compound `CN(c1nc2cnc(-c3ccc4nn(C)cc4c3)cc2s1)C1CCNCC1` [Compound 27, N-methyl-6-(2-methyl-2H-indazol-5-yl)-N-(piperidin-4-yl)[1,3]thiazolo[4,5-c]pyridin-2-amine] came in with an IC50 of 0.5 to 1 µM.

Turning to `CN(c1nc2nnc(-c3cc(F)c(-c4cn[nH]c4)cc3F)cc2s1)C1CCNCC1` [Compound 328, 3-[2,5-difluoro-4-(1H-pyrazol-4-yl)phenyl]-N-methyl-N-(piperidin-4-yl)[1,3]thiazolo[4,5-c]pyridazin-6-amine], the IC50 is 0.1 to 0.5 µM.

Take `Cc1cc(-c2cc(O)c3nc(C4=CCNCC4)sc3c2)cc2cn(C)nc12` [Compound 100, 6-(2,7-dimethyl-2H-indazol-5-yl)-2-(1,2,3,6-tetrahydropyridin-4-yl)-1,3-benzothiazol-4-ol]: the IC50 was in the range of 0.5 to 1 µM.

Consider `Cc1cn2cc(-c3cc(F)c4nc(C5=CCNCC5)sc4c3)nc(C)c2n1` [Compound 53, 6-[4-fluoro-2-(1,2,3,6-tetrahydropyridin-4-yl)-1,3-benzothiazol-6-yl]-2,8-dimethylimidazo[1,2-a]pyrazine], for which the half-inhibitory concentration (IC50) lay within 0.1 to 0.5 µM.

As to `Cc1nc2c(C)cc(-c3cc(F)c4nc([C@H]5C[C@@H](C)N[C@@H](C)C5)sc4c3)nc2o1` [Compound 359, 5-{2-[(2R,4r,6S)-2,6-dimethylpiperidin-4-yl]-4-fluoro-1,3-benzothiazol-6-yl}-2,7-dimethyl[1,3]oxazolo[5,4-b]pyridine], the IC50 was at most 0.1 µM.

Take `CN(c1nc2cnc(-c3cc(F)c4nn(C)cc4c3)cc2s1)C1CC2CCCC(C1)N2C` (stereo not shown) [Compound 273, 6-(7-fluoro-2-methyl-2H-indazol-5-yl)-N-methyl-N-(9-methyl-9-azabicyclo[3.3.1]non-3-yl)[1,3]thiazolo[4,5-c]pyridin-2-amine]: the IC50 fell in the range of 0.5 to 1 µM.

For `Cc1cc(-c2cc3sc(C4CCNCC4)nc3cn2)cc2cn(C)nc12` [Compound 59, 6-(2,7-dimethyl-2H-indazol-5-yl)-2-(piperidin-4-yl)[1,3]thiazolo[4,5-c]pyridine], the IC50 fell in the range of 0.1 to 0.5 µM.

Consider `CN(c1nc2cnc(-c3cc(C#N)c4nn(C)cc4c3)cc2s1)C1CC2CCC(C1)N2` (stereo not drawn) [Compound 206, 5-{2-[(3-exo)-8-azabicyclo[3.2.1]oct-3-yl(methyl)amino][1,3]thiazolo[4,5-c]pyridin-6-yl}-2-methyl-2H-indazole-7-carbonitrile], for which the IC50 is at most 0.1 µM.

Compound `Cc1nc2c(C#N)cc(-c3ncc4nc(N(C)C5CC(C)(C)NC(C)(C)C5)sc4n3)cc2o1` [Compound 275, 2-methyl-6-{2-[methyl(2,2,6,6-tetramethylpiperidin-4-yl)amino][1,3]thiazolo[5,4-d]pyrimidin-5-yl}-1,3-benzoxazole-4-carbonitrile] yielded an IC50 of at most 0.1 µM.

For `Cc1nc2c(C#N)cc(-c3cc4sc(N(C)C5CC6(C)CCC(C)(C5)N6)nc4cn3)cc2o1` [Compound 301, 6-(2-{[(1R,3s,5S)-1,5-dimethyl-8-azabicyclo[3.2.1]octan-3-yl](methyl)amino)[1,3]thiazolo[4,5-c]pyridin-6-yl)-2-methyl-1,3-benzoxazole-4-carbonitrile], the IC50 is at most 0.1 µM.

Consider `CN[C@H]1C[C@@H](N(C)c2nc3nnc(-c4ccc(-c5cn[nH]c5)cc4O)cc3s2)C1` [Compound 361, 2-(6-{methyl[(1s,3s)-3-(methylamino)cyclobutyl]amino}[1,3]thiazolo[4,5-c]pyridazin-3-yl)-5-(1H-pyrazol-4-yl)phenol], for which the IC50 lay in the range of 0.1 to 0.5 µM.

Consider `Cc1cn2cc(-c3cnc4nc(N(C)C5CC(C)(C)NC(C)(C)C5)sc4n3)cc(C#N)c2n1` [Compound 163, 2-methyl-6-{2-[methyl(2,2,6,6-tetramethylpiperidin-4-yl)amino][1,3]thiazolo[4,5-b]pyrazin-6-yl}imidazo[1,2-a]pyridine-8-carbonitrile], for which the IC50 is at most 0.1 µM.

With `Cc1nc2ccc(-c3ccc4nc(C5CCNCC5)sc4c3)cc2[nH]1` [Compound 95, 6-(2-methyl-1H-benzimidazol-6-yl)-2-(piperidin-4-yl)-1,3-benzothiazole], the IC50 lay in the range of 0.1 to 0.5 µM.

Consider `Cn1cc2cc(-c3ccc4nc(C5=CCCNCC5)sc4c3)ccc2n1` [Compound 56, 6-(2-methyl-2H-indazol-5-yl)-2-(2,3,6,7-tetrahydro-1H-azepin-4-yl)-1,3-benzothiazole], for which the IC50 fell in the range of 0.5 to 1 µM.

On to `Cc1csc2nc(-c3cc4sc(N(C)C5CC(C)(C)NC(C)(C)C5)nc4cn3)cn12` [Compound 305], for which the IC50 lay within 0.5 to 1 µM.

In the case of `Cc1cn2nc(-c3cc(F)c4nc(N(C)C5CC6CCC(C5)N6)sc4c3)cc(C#N)c2n1` (stereo not drawn) [Compound 235, 6-{2-[(3-exo)-8-azabicyclo[3.2.1]oct-3-yl(methyl)amino]-4-fluoro-1,3-benzothiazol-6-yl}-2-methylimidazo[1,2-b]pyridazine-8-carbonitrile], the IC50 is at most 0.1 µM.

`Cc1cc(-c2ccc3nc(N(C)C4CCNC(C)C4)sc3c2)cc2cn(C)nc12` (stereo not shown) [Compound 66, 6-(2,7-dimethyl-2H-indazol-5-yl)-N-methyl-N-(2-methylpiperidin-4-yl)-1,3-benzothiazol-2-amine] registered an IC50 of at most 0.1 µM.

The compound `Cc1cn2nc(-c3cc(F)c4nc(C5CCNCC5)sc4c3)cc(C(=O)O)c2n1` [Compound 219, 6-[4-fluoro-2-(piperidin-4-yl)-1,3-benzothiazol-6-yl]-2-methylimidazo[1,2-b]pyridazine-8-carboxylic acid] showed a 50% inhibitory concentration (IC50) of 1 to 3 µM.

`CNC1CC(N(C)c2nc3nnc(-c4ccc(-c5cn[nH]c5)cc4O)cc3s2)C1` (stereo not shown) [Compound 350, 2-(6-{methyl[3-(methylamino)cyclobutyl]amino}[1,3]thiazolo[4,5-c]pyridazin-3-yl)-5-(1H-pyrazol-4-yl)phenol] had an IC50 of 0.1 to 0.5 µM.

The compound `CN(c1nc2ccc(-c3ccc4[nH]ncc4c3)cc2s1)C1CC(C)(C)NC(C)(C)C1` [Compound 34, 6-(1H-indazol-5-yl)-N-methyl-N-(2,2,6,6-tetramethylpiperidin-4-yl)-1,3-benzothiazol-2-amine] showed a half-inhibitory concentration (IC50) of 0.1 to 0.5 µM.

In the case of `Cc1cn2cc(-c3cc4sc(N(C)C5CC(C)(C)NC(C)(C)C5)nc4cn3)cnc2n1` [Compound 105, N-methyl-6-(2-methylimidazo[1,2-a]pyrimidin-6-yl)-N-(2,2,6,6-tetramethylpiperidin-4-yl)[1,3]thiazolo[4,5-c]pyridin-2-amine], the IC50 was in the range of 0.1 to 0.5 µM.

`Cn1cc2cc(-c3cc(F)c4nc(C5CCNCC5)sc4c3)cc(CN)c2n1` [Compound 103, 1-{5-[4-fluoro-2-(piperidin-4-yl)-1,3-benzothiazol-6-yl]-2-methyl-2H-indazol-7-yl}methanamine]: the IC50 was at most 0.1 µM.

`CN1CCC2(CC1)CN(c1nc3nnc(-c4ccc(-c5c[nH]nc5F)cc4O)cc3s1)C2` [Compound 392, 5-(3-fluoro-1H-pyrazol-4-yl)-2-[6-(7-methyl-2,7-diazaspiro[3.5]nonan-2-yl)[1,3]thiazolo[4,5-c]pyridazin-3-yl]phenol] yielded an IC50 of 1 to 3 µM.

Compound `C[C@H]1C[C@@H](N(C)c2nc3nnc(-c4ccc(-c5cn[nH]c5)cc4O)cc3s2)CCN1C` [Compound 395, 2-(6-{[(2S,4S)-1,2-dimethylpiperidin-4-yl](methyl)amino}[1,3]thiazolo[4,5-c]pyridazin-3-yl)-5-(1H-pyrazol-4-yl)phenol] registered a concentration for half-maximal inhibition (IC50) of at most 0.1 µM.
